From patent publication US20260138970A1, “MODULATORS OF THE CALCIUM SIGNALING CASCADE” (FONDAZIONE TELETHON ETS, priority 2022, published 2026) come the findings set out here.

One experiment deals with TMEM16A. Put plainly: HS-YFP assay in FRT cells co-expressing TMEM16A and HS-YFP. It counts as cell-based. The following applies: for potentiation of the effect of UTP on TMEM16A: primary screening and secondary tests, compounds 10 μM. As for the experimental part: Experiments were performed using an automated microplate reader (FLUOstar Omega, BMG Labtech, Offenburg, Germany) equipped with syringe pumps and optical excitation/emission filters optimized for yellow fluorescent protein (YFP) fluorescence (ET500/20× and ET535/30m, respectively; Chroma Technology Corporation). FRT cells with co-expression of TMEM16A and HS-YFP were plated at high density in black wall/clear bottom 96-well microplates (3603, Corning). Each well in microplates was washed 3 times with 150 μl of phosphate-buffered saline (PBS). After washing, each well received 60 μl of PBS containing test compounds at 10 μM final concentration, or TMEM16A inhibitor Ani9 (15) (10 μM), or vehicle. After 20 min of incubation at 37° C., microplates were transferred to the plate reader for fluorescence assay. Each well was assayed individually for TMEM16A-mediated I^− influx by sampling cell fluorescence every 200 ms for 14 s. Two seconds after the start of reading, 165 μl of a modified PBS containing 137 mM KI, instead of NaCl, plus UTP 0.25 μM were automatically added by the reader. K^+ was used in the injected solution to prevent changes of membrane potential due to altered activity of Ca^2+-activated K^+ channels. The fluorescence trace in each well was corrected by background subtraction and then normalized for the initial value measured before I^− addition (F0). The cumulative fluorescence quenching (CFQ) in the time interval between 3 and 13.8 s (representing integration of TMEM16A-dependent I^− influx) was quantified using a procedure compiled in Microsoft Excel according to the formula
For the screening, FRT cells were plated at high density in 96-well microplates. After 48 h, TMEM16A activity was evaluated in a microplate reader by injection in each well of a saline solution containing I^− instead of Cl^− and a submaximal (0.25 μM) UTP concentration (FIG. 1A). Upon injection, UTP triggers Ca^2+ mobilization and TMEM16A activation. The resulting TMEM16A-dependent I^− influx causes HS-YFP quenching. The presence in the well of a small molecule that potentiates TMEM16A activity, in a direct or indirect way, is therefore expected to enhance the rate of HS-YFP quenching.

The subject of experiment [1] is protease-activated receptors. Put plainly: Fluo-4 Ca2+ assay, SLIGR-NH2 stimulus, HEKR1 cells. It counts as cell-based. The following applies: SLIGR-NH2 10 μM; compounds 10 μM; FIG. 5C top. As for the experimental part: Experiments were performed using the microplate reader described for the HS-YFP assay. FRT and HEK293 cells were cultured until confluence in 96-well microplates (3603, Corning). Cells were washed 2 times with PBS (150 μl/wash) and then loaded for 1 h at 37° C. with 5 μM Fluo-4/AM (Thermo Fisher Scientific; catalog number: F23917) in PBS containing 10 mM glucose, 0.5 mM sulfinpyrazone, and 1% fetal bovine serum. After loading, cells were washed 2 times with PBS-glucose-sulfinpyrazone (150 μl/wash) and incubated for 20 min at 37° C. with 60 μl of PBS plus 10 mM glucose and 0.5 mM sulfinpyrazone containing compounds of interest at 10 μM final concentration or vehicle. Each well was assayed individually. Fluo-4 fluorescence (500 nm excitation, 535 nm emission) was detected every 200 ms for 16-40 s. Two seconds after the start of fluorescence recording, the reader automatically injected 165 μl of a modified PBS containing 136 mM KCl instead of NaCl. This solution also contained 10 mM glucose, 0.5 mM sulfinpyrazone, and UTP or SLIGR-NH2 (CAS #171436-38-7) at a final concentration that depended on the specific cell type. For UTP we used: 0.25 μM for FRT; 1 μM for HEKR2; 5 μM for HEK3XKO, HEKR1, and HEKR3. For SLIGR-NH2 we used: 10 μM for HEKR1; 4 μM for HEKR2. These concentrations were chosen to elicit ˜20% of maximal effect based on UTP and SLIGR-NH2 dose-response relationships. The lower agonist concentrations used for HEKR2 cells, compared to HEKR1 cells, are consistent with the higher affinity of ITPR2 for IP3 (16). The Fluo-4 fluorescence increase was quantified using a procedure compiled in Microsoft Excel after background subtraction and normalization for the initial value measured before UTP addition.

[2] abbreviates: FRT cells expressing TMEM16A, UTP 0.25 μM, FIG. 1D.

With `CCc1cc(-c2cc(NCCCOc3ccccc3C)nc(N)n2)n(C)n1` [ARN7149, 6-(3-Ethyl-1-methyl-1H-pyrazol-5-yl)-N^4-(3-(o-tolyloxy)propyl)pyrimidine-2,4-diamine], in the experiment with TMEM16A (setting [2]), the “concentrations at which effective / active, dose-response by HS-YFP assay” value lay in the range of 5 to 20 µM and the “shape of dose-response relationship, HS-YFP assay” value is recorded as “bell-shaped”. Besides, the “potentiation of the effect of UTP on TMEM16A” value (from here on “potentiation … on TMEM16A”) in the experiment with TMEM16A is recorded as “significantly potentiated”. Also, the “potentiation of SLIGR-NH2 stimulus (Ca2+ mobilization), HEKR1 cells” value (“potentiation of SLIGR-NH2 stimulus” below) in experiment [1] was “significant inhibition”.
For the molecule `CCn1nc2c(c1C(=O)Nc1ccccc1OCC1CCCCO1)CCCC2` (stereo not shown) [ARN11391, 2-Ethyl-N-[2-(tetrahydropyran-2-ylmethoxy)phenyl]-4,5,6,7-tetrahydroindazole-3-carboxamide], in the experiment with TMEM16A (setting [2]), the “concentrations at which effective / active, dose-response by HS-YFP assay” value amounted to 10 µM. The “potentiation … on TMEM16A” value in the experiment with TMEM16A is given as “significantly potentiated”. In addition, the “potentiation of SLIGR-NH2 stimulus” value in experiment [1] is reported as “effective as potentiators”.
As to `OCc1ccccc1CN(Cc1ccnc(N2CCCC2)n1)c1ccc(F)cc1` [ARN4550, [2-[[4-Fluoro-N-[(2-pyrrolidin-1-ylpyrimidin-4-yl)methyl]anilino]methyl]phenyl]methanol], the “concentrations at which effective / active, dose-response by HS-YFP assay” value in the experiment on TMEM16A (setting [2]) is 10 µM. In addition, the “potentiation … on TMEM16A” value with TMEM16A is reported as “significantly potentiated”. For the same molecule, the “potentiation of SLIGR-NH2 stimulus” value in experiment [1] is given as “effective as potentiators”.
